Assay results from patent US20220204491A1, “FXR (NR1H4) MODULATING COMPOUNDS” (Gilead Sciences, Inc., priority 2019, published 2022).
Read-outs that look alike come from different tables or passages of the source.

Test: Drug concentration in plasma of cynomolgus monkey (LC/MS/MS)
Assay type: in vivo
Conditions: male cynomolgus monkey, read-out: GS-AUClast
Experimental: Oral solution doses of Formula (I) (Example 1) were formulated at concentrations of 1 mg/mL in aqueous suspensions of 1% sodium laurel sulfate (SLS), 1% ethanol, and 98% water at pH 2. Oral suspension doses of Comparative Example 1, and Comparative Example 2 were formulated at concentrations of 2.5 mg/mL in 1% hydyroxypropyl methylcellulose (HPMC), 0.5% Tween 80, and 98.5% water.
Intravenous doses of compounds of Formula (I) (Example 1), Comparative Example 1, and Comparative Example 2 were formulated at concentrations of 0.5 mg/mL in a vehicle including 5% DMSO, 15% NMP, 60% PEG 300 and water with 1.1 equivalents of NaOH.
Each dosing group consisted of three to six male Cynomolgus monkeys. At dosing, the animals weighed between 2.4 and 4.4 kg.
The oral test articles were administered to the monkeys via oral gavage at 2 mL/kg or nasogastric untubation at 5 mL/kg for a dose of 5 mg/kg. The intravenous test articles were administered as an approximately 30-minute infusion via an indwelling catheter in a saphenous or cephalic vein at approximately 2 mL/kg for a dose of 1 mg/kg.
Venous blood samples were taken at specified time points after dosing from each animal. The blood samples were collected and transferred into tubes containing potassium (K2) EDTA anticoagulant.
For analysis on an API 5000 LC/MS/MS system, an aliquot of 50 μL of each plasma sample was treated with 200 μL of acetonitrile (ACN) containing internal standard. The above solution was centrifuged at 5000 RPM for 10 minutes and 50 μL of supernatant was transferred to a clean 96-well plate, followed by the addition of 200 μL of water. An aliquot of 10 μL was injected to the API 5000 LC/MS/MS system.
For analysis on an Applied Biosystems API 5500 LC/MS/MS system, an aliquot of 20 μL of each plasma sample was treated with 120 μL acetonitrile (ACN) containing internal standard. The above solution was centrifuged and 100 μL of supernatant was transferred to a clean 96-well plate, followed by the addition of 100 μL of water. An aliquot of 7-10 μL was injected to the API 5500 LC/MS/MS system.
A Zorbax Extend C18 HPLC column (50×2.1 mm, 3.5 μm) from Agilent Technologies (Part #735700-902) (Comparative Example 1, and Comparative Example 2) or a Waters BEH C18 column (50×2.1 mm, 1.7 μm) (Example 1) was used. For the Zorbax Extend C18 HPLC column, mobile phase A contained an aqueous solution of 1% acetonitrile in 10 mM ammonium formate adjusted to pH 3.0 with formic acid and mobile phase B contained and 10% 10 mM ammonium formate in acetonitrile adjusted to pH 4.6 with formic acid. For the Waters BEH C18 column, mobile phase A contained 95% water, 5% acetonitrile, and 0.1% formic acid and mobile phase B contained 50% methanol, 50% acetonitrile, and 0.1% formic acid. A Thermo Aria multiplexer with two identical Agilent 1200 series binary pumps (P/N G1312A Bin Pump) was used for elution and separation. The elution programs used are set forth in the following Table 2 for the Zorbax Extend C18 HPLC and Table 3 for the Waters BEH C18 column.
An API 5000 triple quadrupole mass spectrometer from AB Sciex, Foster City, Calif. was used in multiple reaction monitoring mode to quantify the compounds.
Activation of the Farnesoid X receptor in the distal small intestine as well as systemically in organs such as the liver, directly causes the expression and secretion of FGF19. Plasma FGF levels were evaluated as a pharmacodynamics marker of FXR activation in male cynomolgus monkeys following administration of oral and intravenous administration of doses of Example 1, Comparative Example 1, or Comparative Example 2. The difference between levels of FGF19 following oral administration (PO) versus intravenous administration (IV) were used to compare the degree of intestinal FXR agonism (via analysis of PO data) and systemic FXR agonism (via analysis of IV data) for each compound administered. […]

Row | AUC(0-t) (IV infusion, 1 mg/kg) | AUC(0-t) (PO, 5 mg/kg) | SMILES
1 | 3.15 µM·h | 2.25 µM·h | O=C(O)c1ccc(N2CC(O)(c3ccc(OCc4c(-c5c(Cl)cc(F)cc5Cl)noc4C4CC4)cc3Cl)C2)nc1 [Example 1, 6-(3-(2-chloro-4-((5-cyclopropyl-3-(2,6-dichloro-4-fluorophenyl)isoxazol-4-yl)methoxy)phenyl)-3-hydroxyazetidin-1-yl)nicotinic acid]
2 | 1.63 µM·h | 1.67 µM·h | O=C(O)c1cnc(N2CC(O)(c3ccc(OCc4c(-c5c(Cl)cc(F)cc5Cl)noc4C4CC4)cc3Cl)C2)c(F)c1 [Comparative Example 1, 6-(3-(2-chloro-4-((5-cyclopropyl-3-(2,6-dichloro-4-fluorophenyl)isoxazol-4-yl)methoxy)phenyl)-3-hydroxyazetidin-1-yl)-5-fluoronicotinic acid]
3 | 3.14 µM·h | 0.643 µM·h | O=C(O)c1ccc(N2CC(O)(c3ccc(OCc4c(-c5c(Cl)cccc5Cl)noc4C4CC4)cc3Cl)C2)nc1 [Comparative Example 2]
